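Step 1: Grow cells in 96-well plates. Step 2: Expose to compound for 48 hours at 5 concentrations. Step 3: Interpolate endpoints linearly; if unreached, use highest concentration. TGI: total growth inhibition.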
Legend:
Experiment in all cases: inhibition of tumour cell growth, NCI panel, 48 h
A549 NSCLC = system: A549 NSCLC
ACHN renal = system: ACHN renal
M14 melanoma = system: M14 melanoma
MALME-3M melanoma = system: MALME-3M melanoma
NCI-H460 lung = system: NCI-H460 lung
NCI-H522 lung = system: NCI-H522 lung
NCI/ADR-RES ovarian = system: NCI/ADR-RES ovarian
OVCAR-3 ovarian = system: OVCAR-3 ovarian
OVCAR-4 ovarian = system: OVCAR-4 ovarian
OVCAR-5 ovarian = system: OVCAR-5 ovarian
OVCAR-8 ovarian = system: OVCAR-8 ovarian
PC-3 prostate = system: PC-3 prostate
RPMI-8226 leukemia = system: RPMI-8226 leukemia
SF-295 CNS = system: SF-295 CNS
SK-MEL-2 melanoma = system: SK-MEL-2 melanoma
SK-MEL-28 melanoma = system: SK-MEL-28 melanoma
SNB-19 CNS = system: SNB-19 CNS
TK-10 renal = system: TK-10 renal
UO-31 renal = system: UO-31 renal

Row | SMILES | TGI (A549 NSCLC) | TGI (ACHN renal) | TGI (M14 melanoma) | TGI (MALME-3M melanoma) | TGI (NCI-H460 lung) | TGI (NCI-H522 lung) | TGI (NCI/ADR-RES ovarian) | TGI (OVCAR-3 ovarian) | TGI (OVCAR-4 ovarian) | TGI (OVCAR-5 ovarian) | TGI (OVCAR-8 ovarian) | TGI (PC-3 prostate) | TGI (RPMI-8226 leukemia) | TGI (SF-295 CNS) | TGI (SK-MEL-2 melanoma) | TGI (SK-MEL-28 melanoma) | TGI (SNB-19 CNS) | TGI (TK-10 renal) | TGI (UO-31 renal)
1 | COc1ccc(-c2cc(-c3ccc(Nc4ccnc5cc(Cl)ccc45)cc3)nc(N)c2C#N)cc1 | > 100 µM | > 100 µM | > 100 µM | > 100 µM | > 100 µM | > 100 µM | > 100 µM | > 100 µM | > 100 µM | > 100 µM | > 100 µM | > 100 µM | > 100 µM | > 100 µM | > 100 µM | > 100 µM | > 100 µM | > 100 µM | 70.1 µM
2 | COC(=O)[C@@H](O)[C@]1(C(=O)OC)C2O[C@@H](OC)[C@@H]1CCCCCC[C@H]2O | > 100 µM | > 100 µM | > 100 µM | > 100 µM | > 100 µM | > 100 µM | > 100 µM | > 100 µM | > 100 µM | > 100 µM | > 100 µM | > 100 µM | > 100 µM | > 100 µM | > 100 µM | > 100 µM | > 100 µM | > 100 µM | > 100 µM
3 | COc1ccc(C(=O)c2sc(Nc3ccccc3)nc2N)cc1 | > 100 µM | > 100 µM | > 100 µM | > 100 µM | > 100 µM | > 100 µM | > 100 µM | > 100 µM | > 100 µM | > 100 µM | > 100 µM | > 100 µM | > 100 µM | > 100 µM | > 100 µM | > 100 µM | > 100 µM | > 100 µM | > 100 µM
4 | CCCCCCCCCCCCCCCCCCNc1ccn(C2OC(CO)C(O)C2O)c(=O)n1 (configuration not stated) | > 100 µM | > 100 µM | > 100 µM | > 100 µM | > 100 µM | > 100 µM | > 100 µM | > 100 µM | > 100 µM | > 100 µM | > 100 µM | > 89.1 µM | > 100 µM | > 100 µM | > 100 µM | > 100 µM | > 100 µM | > 100 µM | > 100 µM
5 | CC1=C(O)C(=O)C[C@]2(C)[C@H]3CC=C4[C@@H]5CC(C)(C)CC[C@@H]5C(=O)[C@H](O)[C@@]4(C)[C@]3(C)CC[C@@H]12 | > 50 µM | > 50 µM | > 50 µM | > 50 µM | > 50 µM | > 50 µM | > 50 µM | > 50 µM | > 50 µM | > 50 µM | > 50 µM | > 50 µM | > 50 µM | > 50 µM | > 50 µM | > 50 µM | > 50 µM | > 50 µM | > 50 µM
6 | CCOC(=O)c1sc2nc(SC)nc3c2c1NCN3c1ccc2c(c1)OCCCO2 | > 100 µM | > 100 µM | > 100 µM | > 100 µM | > 100 µM | > 100 µM | > 100 µM | 93.9 µM | > 100 µM | > 100 µM | > 100 µM | > 100 µM | > 100 µM | 5.1 µM | > 100 µM | > 100 µM | > 100 µM | > 100 µM | > 100 µM
7 | O=C(Cn1cc(F)c(=O)[nH]c1=O)C12CC3CC(CC(C3)C1)C2 | > 100 µM | > 100 µM | > 100 µM | > 100 µM | > 100 µM | > 100 µM | > 100 µM | > 100 µM | > 100 µM | > 100 µM | > 100 µM | > 100 µM | > 100 µM | > 100 µM | > 100 µM | > 100 µM | > 100 µM | > 100 µM | > 100 µM
8 | CCOP1(=O)C=C(Sc2ccc([N+](=O)[O-])cc2[N+](=O)[O-])C(C)(C)O1 (configuration not stated) | 44.3 µM | 28 µM | 24.5 µM | 31.4 µM | 49.2 µM | 9.36 µM | > 76.5 µM | 25.9 µM | 28.9 µM | 43.4 µM | 35.4 µM | > 50.1 µM | 39.2 µM | 40.8 µM | 35.3 µM | 32 µM | > 57.8 µM | 31.3 µM | 28.3 µM

Reference: PubChem BioAssay (NCI)
